{"source": "patent US4727074A", "about": "“2-(phenylmethylene)-1-(diaminoalkoxy) cycloalkanes and their pharmaceutical uses” (priority 1983, dated 1988)", "key": {"[1]": {"tested_on": "Hexobarbital sleeping time", "assay": "animal or person", "format": "in vivo", "conditions": "for ED50 (narcosis potentiating effect): mice, Hexobarbital i.v., effect = sleeping time 2.5 times longer than control; for ED50: Mus musculus, iv, read-out: ED50 (narcosis potentiating effect); for Therapeutical index (narcosis potentiating): Table I, LD50/ED50, mice", "experimental": "(2) Narcosis potentiating effect\nTo mice having a body weight of 20-24 g Hexobarbital is administered intravenously in a dose of […]. The sleeping time of the treated and control animals is measured."}, "[2]": {"assay": "Acute toxicity on mice (oral)", "format": "in vivo", "conditions": "mouse, in vivo, 4 days observation", "experimental": "(§1) (1) Acute toxicity on mice\n(§2) The acute toxicity is determined on male and female white mice of the CFLP strain. The body weight of the animals amounts to 18-24 g. The test compound is administered orally in a dose of 20 ml/kg. After treatment the animals are placed in a mouse box and kept on scrapings litter at room temperature. The animals receive mouse fodder and tap water ad libitum."}, "writhing reactions": {"tested_on": "writhing reactions", "assay": "Analgesic effect on mice (acetic acid writhing)", "format": "in vivo", "conditions": "for ED50 (analgesic effect), inactive / ED50 (analgesic effect): mice, oral; for ED50: Mus musculus, po, 1 h, read-out: ED50 (analgesic effect); for Therapeutical index (analgesic): Table II, LD50/ED50, mice; for ED50 (analgesic effect): one hour prior to 0.5% acetic acid", "experimental": "(3) Analgesic effect on mice\nTo mice 0.4 ml of 0.5% acetic acid is […] administered. After 5 minutes the characteristic writhing reactions are counted for a period of 5 minutes. The test compound is administered orally one hour prior to the administration of acetic acid. The activity is expressed in the percentage of the data obtained for the control group."}, "aconitine": {"tested_on": "aconitine", "assay": "animal or person", "format": "in vivo, rats", "conditions": "for Percental inhibition of aconitine: rats, 2 minutes before aconitine; for ED50: Rattus norvegicus, iv, read-out: Percental aconitine inhibition ED50; for Therapeutical index (antiarrhythmial): Table IV, LD50 i.v./ED50", "experimental": "(4) Antiarrhythmial effect on rats\nThe antiarrhythmial effect is determined on rats (both male and female; body weight 160-200 g) according to the modified test of Marmo et al. [Marmo et al.: Arzneimittelforschung 20, 12 (1970)]. Aconitine is intravenously administered in the form of a bolus injection. The ECG deviations are followed for 5 minutes by a standard II method. The test compound is administered intravenously 2 minutes before the addition of aconitine.\nIn Table IV the antiarrhythmial effect of a representative compound of the present invention is compared to that of a very active compound specifically disclosed in Hungarian Pat. No. 169,298. The test is carried out as disclosed in connection with Table III."}, "[3]": {"assay": "Acute toxicity i.v. (LD50 of Table IV)", "conditions": "rat, in vivo"}, "[4]": {"tested_on": "white mice of the CFLP strain", "assay": "Acute toxicity on mice (oral)", "format": "in vivo", "conditions": "4 days observation", "experimental": "as §1, §2"}}, "data": [{"smiles": "COc1ccccc1C=C1CCCCC1=NOCC(C)CN(C)C", "note": "(stereo not drawn) [Reference compound C, 1-(2'-methyl-3'-dimethylaminopropoxyimino)-2-(o-methoxy-benzal)-cyclohexane, reference compound]", "values": [{"measurement": "ED50 (narcosis potentiating effect)", "setting": "[1]", "result": "inactive in a dose of 100 mg/kg"}]}, {"smiles": "CN(C)CCCON=C1CCCCC1Cc1ccccc1", "note": "(stereo not drawn) [Reference compound A, 2-benzyl-1-(3'-dimethylamino-propoxy-imino)-cyclohexane, reference compound]", "values": [{"measurement": "ED50 (narcosis potentiating effect)", "setting": "[1]", "result": "inactive in a dose of 50 mg/kg"}, {"measurement": "LD50 at 96 h", "setting": "[2]; po, Table II", "result": 250, "unit": "mg/kg"}]}, {"smiles": "COc1ccc(C=C2CCCCC2=NOCCCN(C)C)cc1", "note": "[Reference compound F, 1-(3'-dimethylamino-propoxyimino)-2-(p-methoxybenzal)-cyclohexane, reference compound]", "values": [{"measurement": "LD50 at 96 h", "setting": "[2]; po, Table II", "result": 1750, "unit": "mg/kg"}, {"measurement": "ED50 (analgesic effect), inactive", "setting": "writhing reactions; in a dose of 350 mg/kg", "result": "inactive"}]}, {"smiles": "C(=C1/CCCC/C1=N\\OCCCN1CCN(c2ccccc2)CC1)/c1ccccc1", "note": "[Example 1, 2-[(E)-phenylmethylene]-1-[(E)-(4'-phenyl-piperazinyl-propoxyimino)]-cyclohexane]", "values": [{"measurement": "ED50", "setting": "[1]", "result": 200, "unit": "mg/kg"}, {"measurement": "Therapeutical index (narcosis potentiating)", "setting": "[1]", "result": 10.0}, {"measurement": "LD50 at 96 h", "setting": "[2]; po, Table I", "result": 2000, "unit": "mg/kg"}, {"measurement": "LD50 at 96 h", "setting": "[2]; po, Table II", "result": "> 2000", "unit": "mg/kg"}, {"measurement": "ED50", "setting": "writhing reactions", "result": 200, "unit": "mg/kg"}, {"measurement": "Therapeutical index (analgesic)", "setting": "writhing reactions", "result": "> 10.0"}]}, {"smiles": "CN(C)CCO/N=C1\\CCCC\\C1=C/c1ccc(Cl)cc1", "note": "[Example 13]", "values": [{"measurement": "Percental inhibition of aconitine", "setting": "aconitine; dose 2 mg/kg i.v.", "result": 35.3, "unit": "Percental"}, {"measurement": "ED50", "setting": "[1]", "result": 10, "unit": "mg/kg"}, {"measurement": "Therapeutical index (narcosis potentiating)", "setting": "[1]", "result": 200.0}, {"measurement": "LD50 at 96 h", "setting": "[2]; po, Table I", "result": 2000, "unit": "mg/kg"}]}, {"smiles": "CC(C)N(CCCO/N=C1\\CCCC\\C1=C/c1ccccc1)C(C)C", "note": "[Example 4, 2-[(E)-phenylmethylene]-1-[(E)-(3'-diisopropylamino-propoxyimino)]-cyclohexane]", "values": [{"measurement": "ED50", "setting": "aconitine", "result": 0.54, "unit": "mg/kg"}, {"measurement": "Therapeutical index (antiarrhythmial)", "setting": "aconitine", "result": 23.14}, {"measurement": "Percental inhibition of aconitine", "setting": "aconitine; dose 1 mg/kg i.v.", "result": 86.2, "unit": "Percental"}, {"measurement": "LD50", "setting": "[3]", "result": 12.5, "unit": "mg/kg"}]}, {"smiles": "CC(C)N(CCCO/N=C1\\CCCC\\C1=C/c1ccc(Cl)cc1)C(C)C", "note": "[Example 3, 2-[(E)-(p-chloro-phenylmethylene)]-1-[(E)-(3'-diisopropylamino-propoxyimino)]-cyclohexane]", "values": [{"measurement": "LD50 at 96 h", "setting": "[2]; po, Table II", "result": 1100, "unit": "mg/kg"}, {"measurement": "ED50", "setting": "writhing reactions", "result": 45, "unit": "mg/kg"}, {"measurement": "Therapeutical index (analgesic)", "setting": "writhing reactions", "result": 24.2}]}, {"smiles": "CC(C)N(CCON=C1CCCCCC1=Cc1ccccc1)C(C)C", "note": "[Reference compound G, 2-benzal-1-(2'-diisopropylamino-ethoxyimino)-cycloheptane, reference compound]", "values": [{"measurement": "ED50", "setting": "aconitine", "result": 2, "unit": "mg/kg"}, {"measurement": "Therapeutical index (antiarrhythmial)", "setting": "aconitine", "result": 10.59}, {"measurement": "LD50", "setting": "[3]", "result": 21.2, "unit": "mg/kg"}, {"measurement": "LD50 at 96 h", "setting": "[2]; po, Table II", "result": 325, "unit": "mg/kg"}, {"measurement": "ED50 (analgesic effect), inactive", "setting": "writhing reactions; in a dose of 65 mg/kg", "result": "inactive"}]}, {"smiles": "CCCC(C)(COC(N)=O)COC(N)=O", "note": "[Meprobamate, 2-methyl-2-n-propyl-1,3-propanediol-dicarbamate, reference compound]", "values": [{"measurement": "ED50", "setting": "[1]", "result": 260, "unit": "mg/kg"}, {"measurement": "Therapeutical index (narcosis potentiating)", "setting": "[1]", "result": 4.2}, {"measurement": "LD50 at 96 h", "setting": "[2]; Table I", "result": 1100, "unit": "mg/kg"}]}, {"smiles": "CCN(CC)CC(=O)Nc1c(C)cccc1C", "note": "[Lidocaine, N,N-diethyl-2,6-dimethyl-acetanilide, reference compound]", "values": [{"measurement": "Percental inhibition of aconitine", "setting": "aconitine; dose 4 mg/kg i.v.", "result": 23.5, "unit": "Percental"}]}, {"smiles": "CC(C)N(CCO/N=C1\\CCCCC\\C1=C\\c1ccccc1)C(C)C", "note": "[Example 5, 2-[(Z)-phenylmethylene]-1-[(E)-(2'-diisopropylamino-ethoxyimino)]-cycloheptane]", "values": [{"measurement": "Percental inhibition of aconitine", "setting": "aconitine; dose 4 mg/kg i.v.", "result": 34.7, "unit": "Percental"}, {"measurement": "ED50", "setting": "[1]", "result": 40, "unit": "mg/kg"}, {"measurement": "Therapeutical index (narcosis potentiating)", "setting": "[1]", "result": 20.0}, {"measurement": "LD50 at 96 h", "setting": "[2]; po, Table I", "result": 800, "unit": "mg/kg"}]}, {"smiles": "CC(C)N(CCO/N=C1\\CCCCCC\\C1=C/c1ccccc1)C(C)C", "note": "[Example 10, 2-[(E)-phenylmethylene]-1-[(E)-(2'-diisopropylamino-ethoxyimino)]-cyclooctane]", "values": [{"measurement": "Percental inhibition of aconitine", "setting": "aconitine; dose 4 mg/kg i.v.", "result": 57.6, "unit": "Percental"}, {"measurement": "LD50 at 96 h", "setting": "[2]; po, Table II", "result": 400, "unit": "mg/kg"}, {"measurement": "ED50", "setting": "writhing reactions", "result": 58, "unit": "mg/kg"}, {"measurement": "Therapeutical index (analgesic)", "setting": "writhing reactions", "result": 6.9}]}, {"smiles": "CN(C)CCCON=C1CCCCC1Cc1ccc(Cl)cc1", "note": "(stereo not drawn) [Reference compound E, 1-(3'-dimethylamino-propoxyimino)-2-(p-chlorobenzyl)-cyclohexane, reference compound]", "values": [{"measurement": "ED50 (narcosis potentiating effect)", "setting": "[1]", "result": "inactive in a dose of 170 mg/kg"}]}, {"smiles": "CC(=O)Nc1ccc(O)cc1", "note": "[Paracetamol, 4-hydroxy-acetanilide, reference compound]", "values": [{"measurement": "ED50", "setting": "writhing reactions", "result": 180, "unit": "mg/kg"}]}, {"smiles": "CC(C)N(CCO/N=C1\\CCCC\\C1=C/c1ccccc1)C(C)C", "note": "[Example 12]", "values": [{"measurement": "Percental inhibition of aconitine", "setting": "aconitine; dose 2 mg/kg i.v.", "result": 39.2, "unit": "Percental"}]}, {"smiles": "Clc1cccc(/C=C2\\CCCCC\\C2=N/OCCCN2CCN(Cc3ccccc3)CC2)c1", "note": "[Example 2, 2-[(E)-(m-chloro-phenylmethylene)]-1-[(E)-(4'-benzylpiperazinyl-propoxyimino)]-cycloheptane]", "values": [{"measurement": "LD50", "setting": "[4]; Table II", "result": 740, "unit": "mg/kg"}, {"measurement": "Therapeutical index (analgesic)", "setting": "writhing reactions", "result": 17.2}, {"measurement": "ED50 (analgesic effect)", "setting": "writhing reactions", "result": 43, "unit": "mg/kg"}]}, {"smiles": "CC(CO/N=C1\\CCCC\\C1=C/c1ccccc1)N(C)C", "note": "(stereo not drawn) [Example 9, 2-[(E)-phenylmethylene]-1-[(E)-(2'-dimethylamino-2'-methyl-1-ethoxyimino)]-cyclohexane]", "values": [{"measurement": "ED50", "setting": "[1]", "result": 23, "unit": "mg/kg"}, {"measurement": "Therapeutical index (narcosis potentiating)", "setting": "[1]", "result": 26.0}, {"measurement": "LD50 at 96 h", "setting": "[2]; po, Table I", "result": 600, "unit": "mg/kg"}]}, {"smiles": "CC(CO/N=C1\\CCCCC\\C1=C/c1ccccc1)N(C)C", "note": "(stereo not drawn) [Example 8, 2-[(E)-phenylmethylene]-1-[(E)-(2'-dimethylamino-2'-methyl-1-ethoxyimino)]-cycloheptane]", "values": [{"measurement": "ED50", "setting": "[1]", "result": 22, "unit": "mg/kg"}, {"measurement": "Therapeutical index (narcosis potentiating)", "setting": "[1]", "result": 36.4}, {"measurement": "LD50 at 96 h", "setting": "[2]; po, Table I", "result": 800, "unit": "mg/kg"}]}, {"smiles": "CN(C)CCCO/N=C1\\CCCCCC\\C1=C/c1ccccc1", "note": "[Example 11]", "values": [{"measurement": "Therapeutical index (narcosis potentiating)", "setting": "[1]", "result": 500.0}, {"measurement": "ED50 (narcosis potentiating effect)", "setting": "[1]", "result": 2, "unit": "mg/kg"}, {"measurement": "LD50", "setting": "[4]; Table I", "result": 1000, "unit": "mg/kg"}, {"measurement": "LD50", "setting": "[4]; Table II", "result": 1000, "unit": "mg/kg"}, {"measurement": "Therapeutical index (analgesic)", "setting": "writhing reactions", "result": 6.7}, {"measurement": "ED50 (analgesic effect)", "setting": "writhing reactions", "result": 150, "unit": "mg/kg"}]}]}
